± gives the expanded uncertainty stated by the source.
Conditions: Liquid, Closed cell (Static) method

SMILES	vapor or sublimation pressure (313.05 K)	vapor or sublimation pressure (322.92 K)	vapor or sublimation pressure (333 K)	vapor or sublimation pressure (342.76 K)	vapor or sublimation pressure (352.84 K)	vapor or sublimation pressure (362.75 K)	vapor or sublimation pressure (369.36 K)	vapor or sublimation pressure (298.88 K)	vapor or sublimation pressure (308.19 K)	vapor or sublimation pressure (313.35 K)	vapor or sublimation pressure (323.13 K)	vapor or sublimation pressure (323.19 K)	vapor or sublimation pressure (323.75 K)	vapor or sublimation pressure (333.47 K)	vapor or sublimation pressure (343.12 K)	vapor or sublimation pressure (343.83 K)	vapor or sublimation pressure (352.3 K)	vapor or sublimation pressure (353.05 K)	vapor or sublimation pressure (363.03 K)	vapor or sublimation pressure (369.15 K)
C=CCCC=C [1,5-hexadiene]	56 ± 20 kPa	78 ± 20 kPa	109 ± 20 kPa	147 ± 20 kPa	197 ± 20 kPa	256 ± 20 kPa	303 ± 20 kPa													
C=CCCl [3-chloro-1-propene]								55 ± 20 kPa	75 ± 20 kPa	90 ± 20 kPa	125 ± 20 kPa	126 ± 20 kPa	126 ± 20 kPa	173 ± 20 kPa	228 ± 20 kPa	233 ± 20 kPa	294 ± 20 kPa	301 ± 20 kPa	389 ± 20 kPa	454 ± 20 kPa
